Tests used:
[1] = test system: HCT-116; experiment: MTT antiproliferative assay, HCT-116; assay type: cell-based, human; details: 72 h, colorectal carcinoma HCT-116
Method: (§1) The colorimetric MTT (3-(4,5-dimethylthiazol-2-yl)-2,5-diphenyltetrazolium bromide) assay was used to measure the cell viability of all of the above cell lines following treatment with target hybrids. Exponentially growing cells were added into 96-well plates at a concentration of 2000–4000 cells per well. Following attachment the cells were treated with varying concentrations (64, 16, 4, 1, 0.25, 0.0625 and 0.015625 µM) of target compounds in media and were kept for incubation for 72 h. MTT (20 µL, 5 mg/mL in PBS) was added to each well and the cells were incubated for another 3 h at 37 °C. Then the medium was removed, followed by the addition of 150 µL DMSO for each well. After that, the absorbance (OD) data of each well at 570 nm wavelength were measured by a Microplate Reader (BIO-RAD), and half inhibition rates (IC50) were calculated[59]^,[60].

[2] = test system: PBMC; experiment: MTT assay, peripheral blood mononuclear cells; assay type: cell-based, human; details: 72 h
Method: as §1

[3] = test system: HepG2; experiment: MTT antiproliferative assay, HepG2; assay type: cell-based, human; details: 72 h, hepatoma HepG2
Method: as §1

[4] = test system: B16; experiment: MTT antiproliferative assay, B16; assay type: cell-based; details: 72 h, melanoma B16
Method: as §1

[5] = test system: L-02; experiment: MTT assay, normal hepatic L-02 cell line; assay type: cell-based; details: human normal hepatic L-02 cell line
Method: as §1

[6] = test system: MCF-7; experiment: MTT antiproliferative assay, MCF-7; assay type: cell-based, human; details: breast carcinoma MCF-7
Method: as §1

[7] = test system: K562; experiment: MTT antiproliferative assay, K562; assay type: cell-based, human; details: 72 h, chronic myeloid leukaemia K562
Method: as §1

Row | Molecule | IC50 [1] [µM] | IC50 [2] [µM] | IC50 [3] [µM] | IC50 [4] [µM] | IC50 ([5]; 72 h) [µM] | IC50 ([6]; 72 h) [µM] | IC50 [7] [µM] | IC50 ([1]; Homo sapiens) [µM] | IC50 ([2]; Homo sapiens, PBMC) [µM] | IC50 ([3]; Homo sapiens) [µM] | IC50 ([5]; L02, 72 h) [µM] | IC50 ([6]; Homo sapiens, MCF7, 72 h) [µM] | IC50 ([7]; Homo sapiens) [µM]
1 | 2-((1-(6-Methyl-4-oxo-4H-chromene-3-carboxamido)propan-2-yl)oxy)-3-(phenylsulfonyl)-1,2,5-oxadiazole 2-oxide [14a] | 29.6 ± 1.48 | > 50 | 19.9 ± 1.31 | 27.9 ± 1.23 | > 50 | > 50 | 13.6 ± 0.85 |  |  |  |  |  | 
2 | 4-(2-(4-(3-Carboxy-6-methyl-4-oxo-4H-chromen-2-yl)piperazin-1-yl)ethoxy)-3-(phenlsulfonyl)-1,2,5-oxadiazole 2-oxide [14d] | 7.87 ± 0.32 | > 50 | 5.38 ± 0.19 | 11.7 ± 0.52 | 28.9 ± 1.43 | 13.8 ± 0.49 | 2.75 ± 0.17 |  |  |  |  |  | 
3 | 4-(2-(6-Methoxy-4-oxo-4H-chromene-3-carboxamido)ethoxy)-3-(phenylsulfonyl)-1,2,5-oxadiazole 2-oxide [13a] | 13.2 ± 0.53 | > 50 | 10.6 ± 0.72 | 16.8 ± 0.74 | > 50 | 22.1 ± 1.38 | 5.89 ± 0.26 |  |  |  |  |  | 
4 | 4-(2-((3-Carboxy-6-methoxy-4-oxo-4H-chromen-2-yl)amino)ethoxy)-3-(phenylsulfonyl)-1,2,5-oxadiazole 2-oxide [13b] | 26.9 ± 1.4 | > 50 | 22.6 ± 1.39 | 26.8 ± 1.22 | > 50 | 24.8 ± 1.28 | 13.6 ± 0.76 |  |  |  |  |  | 
5 | 4-(2-((3-Carboxy-6-methyl-4-oxo-4H-chromen-2-yl)amino)ethoxy)-3-(phenylsulfonyl)-1,2,5-oxadiazole 2-oxide [12b] | 26.9 ± 1.61 | > 50 | 21.3 ± 1.58 | 31.4 ± 1.34 | > 50 | 26.6 ± 1.6 | 12.5 ± 1.03 |  |  |  |  |  | 
6 | 4-(3-(6-Methyl-4-oxo-4H-chromene-3-carboxamido)propoxy)-3-(phenylsulfonyl)-1,2,5-oxadiazole 2-oxide [12c] | 25.4 ± 1.76 | > 50 | 21.5 ± 1.23 | 26.9 ± 1.08 | > 50 | > 50 | 12.5 ± 0.77 |  |  |  |  |  | 
7 | 4-(3-((3-Carboxy-6-methoxy-4-oxo-4H-chromen-2-yl)amino)propoxy)-3-(phenylsulfonyl)-1,2,5-oxadiazole 2-oxide [13d] | > 50 | > 50 | > 50 | > 50 | > 50 | > 50 | > 50 |  |  |  |  |  | 
8 | 4-(3-((3-Carboxy-6-methyl-4-oxo-4H-chromen-2-yl)amino)propoxy)-3-(phenylsulfonyl)-1,2,5-oxadiazole 2-oxide [12d] | 8.64 ± 0.58 | > 50 | 7.91 ± 0.4 | 9.96 ± 0.67 | 33.6 ± 2.95 | 15.9 ± 0.66 | 4.94 ± 0.25 |  |  |  |  |  | 
9 | 4-((1-((3-Carboxy-6-methoxy-4-oxo-4H-chromen-2-yl)amino)propan-2-yl)oxy)-3-(phenylsulfonyl)-1,2,5-oxadiazole 2-oxide [15b] | > 50 | > 50 | > 50 | > 50 | > 50 | > 50 | > 50 |  |  |  |  |  | 
10 | 4-((1-((3-Carboxy-6-methyl-4-oxo-4H-chromen-2-yl)amino)propan-2-yl)oxy)-3-(phenylsulfonyl)-1,2,5-oxadiazole 2-oxide [14b] | > 50 | > 50 | > 50 | > 50 | > 50 | > 50 | > 50 |  |  |  |  |  | 
11 | O=c1[nH]cc(F)c(=O)[nH]1 [5-Fu, fluorouracil, reference compound] |  |  |  | 12.6 ± 1.06 |  |  |  | 6.86 ± 0.37 | > 50 | 32.6 ± 1.98 | > 50 | 26.7 ± 1.92 | 3.94 ± 0.17
12 | NCCOc1no[n+]([O-])c1S(=O)(=O)c1ccccc1 [5a, 4-(2-aminoethoxy)-3-(phenylsulfonyl)-1,2,5-oxadiazole-2-oxide] |  |  |  | 27.9 ± 1.23 |  |  |  | 29.9 ± 1.47 | > 50 | 21.8 ± 1.35 | > 50 | > 50 | 18.9 ± 0.73
13 | NCCCOc1no[n+]([O-])c1S(=O)(=O)c1ccccc1 [5b, 4-(3-aminopropoxy)-3-(phenylsulfonyl)-1,2,5-oxadiazole-2-oxide] |  |  |  | 22.9 ± 1.46 |  |  |  | 18.9 ± 1.67 | > 50 | 17.8 ± 1.43 | > 50 | > 50 | 20.3 ± 1.88
14 | CC(CN)Oc1no[n+]([O-])c1S(=O)(=O)c1ccccc1 (stereo not shown) [5c, 4-((1-aminopropan-2-yl)oxy)-3-(phenylsulfonyl)-1,2,5-oxadiazole-2-oxide] |  |  |  | > 50 |  |  |  | > 50 | > 50 | > 50 | > 50 | > 50 | > 50
15 | O=S(=O)(c1ccccc1)c1c(OCCN2CCNCC2)no[n+]1[O-] [5d, 3-(phenyl-sulfonyl)-4-(2-(piperazin-1-yl)ethoxy)-1,2,5-oxadiazole-2-oxide] |  |  |  | > 50 |  |  |  | > 50 | > 50 | > 50 | > 50 | > 50 | > 50
16 | Cc1ccc2occ(C(=O)NCCOc3no[n+]([O-])c3S(=O)(=O)c3ccccc3)c(=O)c2c1 [12a, (2-(6-Methyl-4-oxo-4H-chromene-3-carboxamido)ethoxy)-3-(phenylsulfonyl)-1,2,5-oxadiazole 2-oxide] |  |  |  | > 50 |  |  |  | > 50 | > 50 | > 50 | > 50 | > 50 | > 50
17 | COc1ccc2occ(C(=O)NCCCOc3no[n+]([O-])c3S(=O)(=O)c3ccccc3)c(=O)c2c1 [13c, 4-(3-(6-Methoxy-4-oxo-4H-chromene-3-carboxamido)propoxy)-3-(phenylsulfonyl)-1,2,5-oxadiazole 2-oxide] |  |  |  | > 50 |  |  |  | > 50 | > 50 | > 50 | > 50 | > 50 | > 50
18 | Cc1ccc2occ(C(=O)N3CCN(CCOc4no[n+]([O-])c4S(=O)(=O)c4ccccc4)CC3)c(=O)c2c1 [14c, 4-(2-(4-(6-Methyl-4-oxo-4H-chromene-3-carbonyl)piperazin-1-yl)ethoxy)-3-(phenylsulfonyl)-1,2,5-oxadiazole 2-oxide] |  |  |  | 10.6 ± 0.53 |  |  |  | 7.93 ± 0.44 | > 50 | 5.67 ± 0.42 | 41.3 ± 2.58 | 12.8 ± 1.46 | 2.98 ± 0.14
19 | COc1ccc2occ(C(=O)N3CCN(CCOc4no[n+]([O-])c4S(=O)(=O)c4ccccc4)CC3)c(=O)c2c1 [15c, 4-(2-(4-(6-Methoxy-4-oxo-4H-chromene-3-carbonyl)piperazin-1-yl)ethoxy)-3-(phenylsulfonyl)-1,2,5-oxadiazole 2-oxide] |  |  |  | 23.5 ± 1.61 |  |  |  | 22.4 ± 1.72 | > 50 | 25.6 ± 1.57 | > 50 | 37.6 ± 2.24 | 8.93 ± 0.36
20 | COc1ccc2oc(N3CCN(CCOc4no[n+]([O-])c4S(=O)(=O)c4ccccc4)CC3)c(C(=O)O)c(=O)c2c1 [15d, 4-(2-(4-(3-Carboxy-6-methoxy-4-oxo-4H-chromen-2-yl)piperazin-1-yl)ethoxy)-3-(phenylsulfonyl)-1,2,5-oxadiazole 2-oxide] |  |  |  | 35 ± 1.25 |  |  |  | 12.9 ± 1.02 | > 50 | 9.56 ± 2.37 | > 50 | 16.9 ± 1.29 | 4.07 ± 0.39
21 | Cc1ccc2occ(C(=O)O)c(=O)c2c1 [compound 10] |  |  |  | > 50 |  |  |  | > 50 | > 50 | > 50 | > 50 | > 50 | > 50
22 | COc1ccc2occ(C(=O)O)c(=O)c2c1 [compound 11] |  |  |  | > 50 |  |  |  | > 50 | > 50 | > 50 | > 50 | > 50 | > 50

Reference: PMC7144234, “Antiproliferative chromone derivatives induce K562 cell death through endogenous and exogenous pathways” (Journal of Enzyme Inhibition and Medicinal Chemistry, 2020)
